Assay: Inhibition of PCSK9 transcriptional activity in human HepG2 cells by luciferase reporter based assay

Row | IC50 [µM] | SMILES
1 | 3.96 | CC(C)(C)OC(=O)N1CCN(Cc2ccc3nc(NC(=O)c4ccc(S(=O)(=O)NCCC#N)cc4)sc3c2)CC1
2 | 6.53 | CCOC(=O)c1ccc2nc(N3CCN(NC(=O)c4ccc(Cl)c(Cl)c4)CC3)sc2c1
